Measured values published in patent US20220041583A1, “IMMUNOMODULATORS, COMPOSITIONS AND METHODS THERE OF” (BETTA PHARMACEUTICALS CO., LTD, priority 2018, published 2022).

Molecular target: T1, PD-1/PD-L1 (Homo sapiens, UniProt Q9NZQ7)
T1 construct: Recombinant human PD-L1 protein (19-238) with a His-tag at the C-terminus; purchased AcroBiosystems PD1-H5229 (PD-L1); PD1-H5257 (PD-1)
Assay: PD-1/PD-L1 homogenous time-resolved fluorescence (HTRF) binding assay
Procedure: Resolved Fluorescence (HTRF) Binding Assay
The assays were conducted in a standard black 384-well polystyrene plate with a final volume of 20 μL. Inhibitors were first serially diluted in DMSO and then added to the plate wells before the addition of other reaction components. The final concentration of DMSO in the assay was 1%. The assays were carried out at 25° C. in the PBS buffer (pH 7.4) with 0.05% Tween-20 and 0.1% BSA. Recombinant human PD-L1 protein (19-238) with a His-tag at the C-terminus was purchased from AcroBiosy stems (PD1-H5229). Recombinant human PD-1 protein (25-167) with Fc tag at the C-terminus was also purchased from AcroBiosystems (PD1-H5257). PD-L1 and PD-1 proteins were diluted in the assay buffer and 10 μL was added to the plate well. Plates were centrifuged and proteins were preincubated with inhibitors for 40 min. The incubation was followed by the addition of 10 μL of HTRF detection buffer supplemented with Europium cryptate-labeled anti-human IgG (PerkinElmer-AD0212) specific for Fc and anti-His antibody conjugated to SureLight®-Allophycocyanin (APC, PerkinElmer-AD0059H). After centrifugation, the plate was incubated at 25° C. for 60 min. Before reading on a PHERAstar FS plate reader (665 nm/620 nm ratio). Final concentrations in the assay were […] PD1, 10 nM PD-L1, 1 nM europium anti-human IgG and 20 nM anti-His-Allophycocyanin. IC50 determination was performed by fitting the curve of percent control activity versus the log of the inhibitor concentration using the GraphPad Prism 5.0 software.

T1 sequence (Q9NZQ7 19-238): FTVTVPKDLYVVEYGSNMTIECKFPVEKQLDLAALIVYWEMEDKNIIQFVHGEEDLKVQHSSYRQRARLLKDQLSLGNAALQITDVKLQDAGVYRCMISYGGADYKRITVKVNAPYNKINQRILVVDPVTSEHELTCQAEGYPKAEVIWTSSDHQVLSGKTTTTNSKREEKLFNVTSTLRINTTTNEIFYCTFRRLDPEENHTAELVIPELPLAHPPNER

IC50 (Table 6, numeric values) [µM] | IC50 (Table 6, class symbols) [µM] | SMILES
0.0018 |  | Cc1c(-c2ccccc2)cccc1-c1nc2cc(CN[C@@H](CO)C(=O)O)c(OC(F)F)cc2o1 [Example 43, ((6-(difluoromethoxy)-2-(2-methyl-[1,1′-biphenyl]-3-yl)benzo[d]oxazol-5-yl)methyl)-L-serine]
 | 0.0001 to 0.01 | Cc1c(-c2ccccc2)cccc1-c1nc2cc(CN3CCCCC3C(=O)O)c(C#N)cc2o1 (stereo not shown) [Example 26, 1-((6-cyano-2-(2-methyl-[1,1′-biphenyl]-3-yl)benzo[d]oxazol-5-yl)methyl)piperidine-2-carboxylic acid]
 | 0.01 to 0.1 | Cc1c(-c2ccccc2)cccc1-c1nc2cc(CN3CC[C@H](O)C3)c(F)cc2o1 [Example 23, (S)-1-((6-fluoro-2-(2-methyl-[1,1′-biphenyl]-3-yl)benzo[d]oxazol-5-yl)methyl)pyrrolidin-3-ol]
 | 0.0001 to 0.01 | Cc1c(-c2ccccc2)cccc1-c1nc2cc(CN3CCC3C(=O)O)c(OC(F)F)cc2o1 (stereo not shown) [Example 48, 1-((6-(difluoromethoxy)-2-(2-methyl-[1,1′-biphenyl]-3-yl)benzo[d]oxazol-5-yl)methyl)azetidine-2-carboxylic acid]
 | 0.0001 to 0.01 | Cc1c(-c2ccccc2)cccc1-c1nc2cc(CNCC(=O)O)c(OC(F)F)cc2o1 [Example 35, ((6-(difluoromethoxy)-2-(2-methyl-[1,1′-biphenyl]-3-yl)benzo[d]oxazol-5-yl)methyl)glycine]
 | 0.0001 to 0.01 | Cc1c(-c2ccccc2)cccc1-c1nc2cc(CN3CCC[C@H]3C(=O)O)c(OC(F)(F)F)cc2o1 [Example 63, ((2-(2-methyl-[1,1′-biphenyl]-3-yl)-6-(trifluoromethoxy)benzo[d]oxazol-5-yl)methyl)-L-proline]
 | 0.01 to 0.1 | Cc1c(-c2ccccc2)cccc1-c1nc2cc(CN3CCC[C@@H]3C(=O)O)c(OC(F)F)cc2o1 [Example 37, ((6-(difluoromethoxy)-2-(2-methyl-[1,1′-biphenyl]-3-yl)benzo[d]oxazol-5-yl)methyl)-D-proline]
 | 0.1 to 1 | Cc1c(-c2ccccc2)cccc1-c1nc2cc3c(cc2o1)OCCN(CC(=O)O)C3 [Example 71, 2-(2-(2-methyl-[1,1′-biphenyl]-3-yl)-6,7-dihydrooxazolo[5′,4′:4,5]benzo[1,2-f][1,4]oxazepin-8(9H)-yl)acetic acid]
 | 0.01 to 0.1 | N#Cc1ccccc1-c1cccc(-c2nc3cc(CN4CCC[C@H]4C(=O)O)c(OC(F)F)cc3o2)c1C#N [Example 45, ((2-(2,2′-dicyano-[1,1′-biphenyl]-3-yl)-6-(difluoromethoxy)benzo[d]oxazol-5-yl)methyl)-L-proline]
 | 0.01 to 0.1 | Cc1c(-c2ccccc2)cccc1-c1nc2cc(CN[C@H](C)C(=O)O)c(OCC(F)(F)F)cc2o1 [Example 56, ((2-(2-methyl-[1,1′-biphenyl]-3-yl)-6-(2,2,2-trifluoroethoxy)benzo[d]oxazol-5-yl)methyl)-D-alanine]
 | 0.0001 to 0.01 | Cc1cc2oc(-c3cccc(-c4ccccc4)c3C#N)nc2cc1CN1CCOC[C@H]1C(=O)O [Example 19, (S)-4-((2-(2-cyano-[1,1′-biphenyl]-3-yl)-6-methylbenzo[d]oxazol-5-yl)methyl)morpholine-3-carboxylic acid]
 | 0.0001 to 0.01 | Cc1cc2oc(-c3cccc(-c4ccccc4)c3C#N)nc2cc1CN1CCC[C@H]1C(=O)O [Example 18, ((2-(2-cyano-[1,1′-biphenyl]-3-yl)-6-methylbenzo[d]oxazol-5-yl)methyl)-L-proline]
 | 0.01 to 0.1 | Cc1c(-c2ccccc2)cccc1-c1nc2cc(CN3CCOC[C@H]3C(=O)O)c(OCC(F)(F)F)cc2o1 [Example 58, (S)-4-((2-(2-methyl-[1,1′-biphenyl]-3-yl)-6-(2,2,2-trifluoroethoxy)benzo[d]oxazol-5-yl)methyl)morpholine-3-carboxylic acid]
0.0074 |  | Cc1c(-c2ccccc2)cccc1-c1nc2cc(CN3CCCC[C@H]3C(=O)O)c(F)cc2o1 [Example 25, (S)-1-((6-fluoro-2-(2-methyl-[1,1′-biphenyl]-3-yl)benzo[d]oxazol-5-yl)methyl)piperidine-2-carboxylic acid]
 | 0.01 to 0.1 | CC[C@@H](NCc1cc2nc(-c3cccc(-c4ccccc4)c3C)oc2cc1OC(F)F)C(=O)O [Example 41, (R)-2-(((6-(difluoromethoxy)-2-(2-methyl-[1,1′-biphenyl]-3-yl)benzo[d]oxazol-5-yl)methyl)amino)butanoic acid]
 | 0.0001 to 0.01 | Cc1c(-c2ccccc2)cccc1-c1nc2cc(CN3CCCC3(C)C(=O)O)c(OC(F)F)cc2o1 (stereo not shown) [Example 50, 1-((6-(difluoromethoxy)-2-(2-methyl-[1,1′-biphenyl]-3-yl)benzo[d]oxazol-5-yl)methyl)-2-methylpyrrolidine-2-carboxylic acid]

IC50 (Table 6, numeric values) [µM] | IC50 (Table 6, class symbols) [µM] | SMILES
 | 0.0001 to 0.01 | CSc1cc2oc(-c3cccc(-c4ccccc4)c3C)nc2cc1CN[C@H](C(=O)O)[C@H](C)O [Example 4, ((2-(2-methyl-[1,1′-biphenyl]-3-yl)-6-(methylthio)benzo[d]oxazol-5-yl)methyl)-L-allothreonine]
 | 0.0001 to 0.01 | CSc1cc2oc(-c3cccc(-c4ccccc4)c3C#N)nc2cc1CN1CCC[C@H]1C(=O)O [Example 14, ((2-(2-cyano-[1,1′-biphenyl]-3-yl)-6-(methylthio)benzo[d]oxazol-5-yl)methyl)-L-proline]
 | 0.1 to 1 | Cc1c(-c2ccccc2)cccc1-c1nc2cc(CN3CCCCC3C(=O)O)n3ncnc3c2o1 (stereo not shown) [Example 69, 1-((8-(2-methyl-[1,1′-biphenyl]-3-yl)oxazolo[5,4-c][1,2,4]triazolo[1,5-a]pyridin-5-yl)methyl)piperidine-2-carboxylic acid]
 | 0.0001 to 0.01 | CC[C@H](NCc1cc2nc(-c3cccc(-c4ccccc4)c3C)oc2cc1OC(F)F)C(=O)O [Example 40, (S)-2-(((6-(difluoromethoxy)-2-(2-methyl-[1,1′-biphenyl]-3-yl)benzo[d]oxazol-5-yl)methyl)amino)butanoic acid]
 | 0.1 to 1 | Cc1c(-c2ccccc2)cccc1-c1nc2cc3c(cc2o1)OC[C@@H](C(=O)O)NC3 [Example 70, (S)-2-(2-methyl-[1,1′-biphenyl]-3-yl)-6,7,8,9-tetrahydrooxazolo[5′,4′:4,5]benzo[1,2-f][1,4]oxazepine-7-carboxylic acid]
 | 0.0001 to 0.01 | Cc1c(-c2ccccc2)cccc1-c1nc2cc(CN3CCC[C@H]3C(=O)O)c(OS(C)(=O)=O)cc2o1 [Example 64, ((2-(2-methyl-[1,1′-biphenyl]-3-yl)-6-((methylsulfonyl)oxy)benzo[d]oxazol-5-yl)methyl)-L-proline]
 | 0.01 to 0.1 | CSc1cc2oc(-c3cccc(-c4ccccc4C#N)c3C#N)nc2cc1CN1CCC[C@H]1C(=O)O [Example 15, ((2-(2,2′-dicyano-[1,1′-biphenyl]-3-yl)-6-(methylthio)benzo[d]oxazol-5-yl)methyl)-L-proline]
 | 0.0001 to 0.01 | CSc1cc2oc(-c3cccc(-c4ccccc4)c3C)nc2cc1CN1CCCC1(C)C(=O)O (stereo not shown) [Example 16, 2-methyl-1-((2-(2-methyl-[1,1′-biphenyl]-3-yl)-6-(methylthio)benzo[d]oxazol-5-yl)methyl)pyrrolidine-2-carboxylic acid]
 | 0.0001 to 0.01 | Cc1c(-c2ccccc2)cccc1-c1nc2cc(CN3CCCCC3CO)c(OC(F)F)cc2o1 (stereo not shown) [Example 38, (1-((6-(difluoromethoxy)-2-(2-methyl-[1,1′-biphenyl]-3-yl)benzo[d]oxazol-5-yl)methyl)piperidin-2-yl)methanol]
 | 0.01 to 0.1 | Cc1c(-c2ccccc2)cccc1-c1nc2cc(CN3CCCCC3C(=O)O)c(OCC(F)F)cc2o1 (stereo not shown) [Example 55, 1-((6-(2,2-difluoroethoxy)-2-(2-methyl-[1,1′-biphenyl]-3-yl)benzo[d]oxazol-5-yl)methyl)piperidine-2-carboxylic acid]
 | 0.01 to 0.1 | Cc1c(-c2nc3cc(CN4CCC[C@H]4C(=O)O)c(OC(F)F)cc3o2)cccc1-c1ccccc1C#N [Example 51, ((2-(2′-cyano-2-methyl-[1,1′-biphenyl]-3-yl)-6-(difluoromethoxy)benzo[d]oxazol-5-yl)methyl)proline]
 | 0.1 to 1 | Cc1c(-c2ccccc2)cccc1-c1nc2cc3c(cc2o1)OCCN(C)C3 [Example 67, 8-methyl-2-(2-methyl-[1,1′-biphenyl]-3-yl)-6,7,8,9-tetrahydrooxazolo[5′,4′:4,5]benzo[1,2-f][1,4]oxazepine]
0.0072 |  | Cc1c(-c2ccccc2)cccc1-c1nc2cc(CN3CCC[C@H]3C(=O)O)c(F)cc2o1 [Example 24, ((6-fluoro-2-(2-methyl-[1,1′-biphenyl]-3-yl)benzo[d]oxazol-5-yl)methyl)-L-proline]
 | 0.0001 to 0.01 | CSc1cc2oc(-c3cccc(-c4ccccc4)c3C)nc2cc1CN[C@H](CO)C(=O)O [Example 12, ((2-(2-methyl-[1,1′-biphenyl]-3-yl)-6-(methylthio)benzo[d]oxazol-5-yl)methyl)-D-serine]
 | 0.0001 to 0.01 | Cc1cc2oc(-c3cccc(-c4ccccc4)c3C#N)nc2cc1CN1CCC[C@@H]1C(=O)O [Example 17, ((2-(2-cyano-[1,1′-biphenyl]-3-yl)-6-methylbenzo[d]oxazol-5-yl)methyl)-D-proline]
